Test results reported in paper PMC11253633, “Robust leishmanicidal upshot of some new diphenyl triazine-based molecules” (RSC Advances, 2024).
pIC50: −log10 of the molar value. “Also recorded” adds a separate entry of the source.

Experiments:
[1] = test system: L. donovani promastigotes; assay: Anti-leishmanial screening against L. donovani promastigotes at a single concentration (MTT); type: cell-based, Leishmania donovani; conditions: for % Inhibition of L. donovani promastigotes / Activity against the promastigote parasite (in words): 100 μM; for % Inhibition of L. donovani promastigotes / inhibition at 100 µM: 72 h at 26 °C, MTT; for inhibition at 100 µM: Leishmania donovani, 72 h
Description: Each candidate was evaluated for its in vitro activity against reference strain (MHOM/IN/83/AG83) of extracellular promastigotes and intracellular amastigotes of L. donovani.
Promastigotes were routinely cultured at 26 °C in medium M199 supplemented with 10% heat inactivated fetal bovine serum (FBS, Gibco Laboratories, Mumbai, India), penicillin 100 (IU mL^−1), streptomycin (100 μg mL^−1). Log phase promastigotes were sub-cultured every 72–96 h, the inoculum being 2 × 10^6 cells per mL.[29]
The triazin hybrids series was evaluated for their antileishmanial ability against L. donovani promastigotes in vitro. Promastigotes of L. donovani (1× 10^6 cells per mL) in M199 medium were incubated at 26 °C for 72 h with each compound at a concentration of 100 μM. Miltefosine (MTF) was used as a reference drug, 0.2% DMSO as solvent control. Parasites with media alone were taken as control. Parasite viability was achieved by MTT assay after 72 h (Sharma et al. 2023).[30]

[2] = test system: L. donovani promastigotes; assay: Dose-dependent anti-promastigote activity and determination of IC50 (MTT); type: cell-based; conditions: Leishmania donovani, 72 h, 3 days at 26 °C
Description: MTF was used as a standard antileishmanial drug control. The cell viability was evaluated (by MTT Assay) and the mean percentage viability was calculated as follows: Mean cell number of treated parasites/mean cell number of untreated parasites × 100. The 50 and 90% inhibitory concentration (IC50) i.e., the concentration of drugs that decreased the cell growth by 50 and 90% respectively, was determined by graphical extrapolation after plotting the graph of percentage viability vs. concentration of the drug.[31]
Parasite viability was not affected by DMSO (0.2%, data not shown) used as solvent control.[33]

[3] = test system: L. donovani amastigotes; assay: Anti-amastigote assay in infected THP-1 macrophages (Giemsa); type: cell-based, Leishmania donovani
Description: To evaluate the anti-leishmanial effect of the compound T4 and T7 on intracellular L. donovani parasites, macrophage was infected with stationary -phase L. donovani for 6 h. The cells were then washed with saline to remove any non-internalised parasites. To assess the effect of compounds T4 and T7 on intracellular parasites at early stages of infection, macrophages were subsequently treated with T4 and T7 at concentrations of 100, 50, 25, 12.5, or 6.25 μM (refer to Table 3 and Fig. 7) for 6, 24, or 48 hours.
THP-1 cells (5 × 10^5 cells per mL) were cultivated in RPMI-1640 media (Roswell Park Memorial Institute 1640) (Sigma-Aldrich, USA), supplemented with 10% fetal calf serum and maintained at 37 °C with 5% CO2 using phorbol ester as the inducer. These cells were added on circular coverslips (1 × 10^6 cells per mL). Promastigotes of L. donovani were introduced at 1 : 20 ratio. Treatment of the samples was carried out at doses of 100, 50, 25, 12.5, 6.25 and 3.125 μM/72 h. After being taken off, the coverslips were stained with Giemsa. The rate of macrophage infection was then ascertained.

[4] = test system: L. donovani promastigotes; assay: Determination of promastigote cellular morphology (light microscopy); type: cell-based, Leishmania donovani; conditions: 25, 50 and 100 μM, 72 h, light microscopy 40×
Description: For the evident of morphological changes, the promastigotes (Fig. 3 (C to L)) were incubated in presence of compound T7, T4 and control Ampho B with the different concentration 25 μM, 50 μM, 100 μM shown in (Fig. 3C to L) were analysed by light microscopy (40×magnification) compared to untreated cells (Fig. 4A).
Fig. 4 Morphological Analysis of promastigote stage cells treated with compound T4 and MTF, compared to the untreated control (A) and DMSO treated control (B). Exponential-phase promastigotes (1 × 10^6 cells per mL) were incubated with 25 μm, 50 μm and 100 μm and analysed by light microscopy (40× magnification). (A) Untreated control (B) DMSO Treated cells (C–E) Ampho B, (F–H) T4 and T7 (I–K) at 25, 50, and 100 μM respectively. Scale bar in all is 10 μm.
Variations in the cellular morphology of Leishmania parasites due to the treatment with compounds T4 and T7 was detected microscopically. Briefly, the promastigotes (1× 10^6 cells per mL) were incubated in the absence or presence of test compounds and MTF and AmphoB for 72 h with different concentrations and observed under 40× objective of a phase-contrast microscope. […] Data were recorded by using NIS-Elements imaging software.[32]

[5] = test system: Human macrophage THP-1 cell line; assay: Cytotoxicity assay on THP-1 cell line (MTT); type: cell-based; conditions: 3.125–100 μM
Description: The cell lines were incubated for 48 h at 37 °C in a CO2 incubator with increasing concentrations of test compounds and viability was ascertained. Each point or bar corresponds to the mean ± SEM of triplicate samples and is representative of one of three independent experiments.
THP-1 human monocytic cells were grown at 37 °C in medium RPMI-1640 (pH 7.4, Sigma-Aldrich, St. Louis, MO, USA) supplemented with 10% heat-inactivated FBS for 48 to 72 h in a humidified atmosphere of 5% CO2 and sub-cultured in fresh RPMI-1640 medium at an average density 2 × 10^5 cells per mL (Sharma et al. 2023).[30]
Human macrophage THP-1 cell line of 0.5 × 10^6 cells per mL seeded in RPMI-1640 medium (Sigma-Aldrich, USA) supplemented with 10% FBS (GIBCO) in presence of 5% CO2 at 37 °C in triplicate in 96 well culture plate. The cells were treated with two-fold serially diluted concentrations (100–3.125 μM) of the candidate molecules for 72 h. The IC50 was calculated using MTT assay (Sharma et al. 2023).[30]

[6] = test system: promastigote form of L. donovani; conditions: cited from earlier work

Row | Molecule | % Inhibition of L. donovani promastigotes [1] [%] | melting point [°C] | inhibition at 100 µM [1] [%] | Activity against the promastigote parasite (in words) [1] | other results
1 | O=C(CSc1nnc(-c2ccccc2)c(-c2ccccc2)n1)Nc1cc(=O)oc2ccccc12 [T5, 2-((5,6-Diphenyl-1,2,4-triazin-3-yl)thio)-N-(2-oxo-2H-chromen-4-yl)acetamide] | 67.93 | 200 to 202 |  |  | 
2 | CC1CCN(c2cc(Sc3nnc(-c4ccccc4)c(-c4ccccc4)n3)ncn2)CC1 [T7, 3-((6-(4-Methylpiperidin-1-yl)pyrimidin-4-yl)thio)-5,6-diphenyl-1,2,4-triazine] | 99.89 | 250 to 252 | > 90 |  | pIC50 [2]: 5.94; Percentage reduction of parasites (amastigote) ([3]; 6.25 μM): 56%; Percentage reduction of parasites (amastigote) ([3]; 12.5 μM): 62%; Percentage reduction of parasites (amastigote) ([3]; 25 μM): 66%; Percentage reduction of parasites (amastigote) ([3]; 50 μM): 70.6%; Percentage reduction of parasites (amastigote) ([3]; 100 μM): 72%; Inhibitory activity against amastigotes (in words) ([3]; 100–6.25 μM, infected macrophages): good inhibitory activity; also recorded: capable of inhibiting the growth; Cellular morphological alterations in promastigotes (in words) [4]: loss of flagella
3 | CCOC(=O)c1cnc2ccc(OC)cc2c1Sc1nnc(-c2ccccc2)c(-c2ccccc2)n1 [T2, Ethyl 4-((5,6-diphenyl-1,2,4-triazin-3-yl)thio)-6-methoxyquinoline-3-carboxylate] | 71.02 | 200 to 202 | < 90 |  | 
4 | Clc1ccc2c(N3CCN(c4cc(Sc5nnc(-c6ccccc6)c(-c6ccccc6)n5)ncn4)CC3)ccnc2c1 [T10, 7-Chloro-4-(4-(6-((5,6-diphenyl-1,2,4-triazin-3-yl)thio)pyrimidin-4-yl)piperazin-1-yl) quinoline] |  | 260 to 262 | 22.4 | negligible activity | 
5 | C[C@@H]1[C@H](O)[C@@H](C)/C=C/C=C/C=C/C=C/C=C/C=C/C=C/[C@H](O[C@@H]2O[C@H](C)[C@@H](O)[C@H](N)[C@@H]2O)C[C@@H]2O[C@](O)(C[C@@H](O)C[C@@H](O)[C@H](O)CC[C@@H](O)C[C@@H](O)CC(=O)O[C@H]1C)C[C@H](O)[C@H]2C(=O)O [Ampho B, Amphotericin B, reference compound] |  |  |  |  | pIC50 [2]: 5.98; Percentage reduction of parasites (amastigote) ([3]; 6.25 μM): 74%; Percentage reduction of parasites (amastigote) ([3]; 12.5 μM): 76%; Percentage reduction of parasites (amastigote) ([3]; 25 μM): 79.44%; Percentage reduction of parasites (amastigote) ([3]; 50 μM): 82.5%; Percentage reduction of parasites (amastigote) ([3]; 100 μM): 84.2%
6 | CCCCCCCCCCCCCCCCOP(=O)([O-])OCC[N+](C)(C)C [MTF, miltefosine, reference compound] |  |  |  |  | pIC50 [2]: 5.83; Percentage reduction of parasites (amastigote) ([3]; 6.25 μM): 68%; Percentage reduction of parasites (amastigote) ([3]; 12.5 μM): 72%; Percentage reduction of parasites (amastigote) ([3]; 25 μM): 73%; Percentage reduction of parasites (amastigote) ([3]; 50 μM): 74%; Percentage reduction of parasites (amastigote) ([3]; 100 μM): 76%; Cytotoxicity on THP-1 human macrophages (in words) [5]: some cytotoxicity; Cytotoxicity on THP-1 human macrophages (in words) ([5]; listed as Miltefosine): nontoxic
7 | 1,2,4-triazino[5,6-b]indol-3-ylthio-1,3,5-triazine [1 (Fig. 2)] |  |  |  |  | fold more selectivity in comparison to pentamidine [6]: 20 fold; fold more selectivity in comparison to sodium stibogluconate [6]: 10 fold; inhibition against promastigote form of L. donovani [6]: more than 90%; selectivity (S.I.) [6]: 56.61
8 | CCN1CCN(c2cc(Sc3nnc(-c4ccccc4)c(-c4ccccc4)n3)ncn2)CC1 [T13, 113-((6-(4-Ethylpiperazin-1-yl)pyrimidin-4-yl)thio)-5,6-diphenyl-1,2,4-triazine] | 18.54 |  |  | negligible activity; also recorded: minimal activity | 
9 | Clc1ccc2c(Sc3nnc(-c4ccccc4)c(-c4ccccc4)n3)ccnc2c1 [T1, 7-Chloro-4-((5,6-diphenyl-1,2,4-triazin-3-yl)thio)quinoline] | 66.78 | 250 to 252 |  |  | 
10 | N#Cc1cccnc1N1CCN(c2cc(Sc3nnc(-c4ccccc4)c(-c4ccccc4)n3)ncn2)CC1 [T9, 2-(4-(6-((5,6-Diphenyl-1,2,4-triazin-3-yl)thio)pyrimidin-4-yl)piperazin-1-yl)nicotinonitrile] |  | 250 to 252 | 29.8 | negligible activity | 
11 | COc1ccccc1N1CCN(c2cc(Sc3nnc(-c4ccccc4)c(-c4ccccc4)n3)ncn2)CC1 [T12, 103-((6-(4-(2-methoxyphenyl)piperazin-1-yl)pyrimidin-4-yl)thio)-5,6-diphenyl-1,2,4-triazine] | 21.86 |  |  | negligible activity; also recorded: minimal activity | 
12 | Cc1cc(N2CCN(c3cc(Sc4nnc(-c5ccccc5)c(-c5ccccc5)n4)ncn3)CC2)n2ncnc2n1 [T11, 7-(4-(6-((5,6-Diphenyl-1,2,4-triazin-3-yl)thio)pyrimidin-4-yl)piperazin-1-yl)-5-methyl-[1,2,4]triazolo[1,5-a]pyrimidine] |  | 280 to 285 | 32.1 | negligible activity | 
13 | c1ccc(-c2nnc(Sc3cc(N4CCCCC4)ncn3)nc2-c2ccccc2)cc1 [T8, 5,6-Diphenyl-3-((6-(piperidin-1-yl)pyrimidin-4-yl)thio)-1,2,4-triazine] |  |  | 73.7 | negligible activity | 
14 | c1ccc(-c2nnc(Sc3cc(N4CCOCC4)ncn3)nc2-c2ccccc2)cc1 [T6, 4-(6-((5,6-Diphenyl-1,2,4-triazin-3-yl)thio)pyrimidin-4-yl)morpholine] |  | 198 to 200 | 43.9 | negligible activity | 
15 | O=[N+]([O-])c1ccc(N2CCN(c3cc(Sc4nnc(-c5ccccc5)c(-c5ccccc5)n4)ncn3)CC2)cc1 [T14, 123-((6-(4-(4-Nitrophenyl)piperazin-1-yl)pyrimidin-4-yl)thio)-5,6-diphenyl-1,2,4-triazine] | 22.76 |  |  | negligible activity; also recorded: minimal activity | 
16 | Fc1ccc(N2CCN(c3cc(Sc4nnc(-c5ccccc5)c(-c5ccccc5)n4)ncn3)CC2)cc1 [T15, 3-((6-(4-(4-Fluorophenyl)piperazin-1-yl)pyrimidin-4-yl)thio)-5,6-diphenyl-1,2,4-triazine] |  |  | 28.8 | negligible activity; also recorded: minimal activity | 
17 | CCOC(=O)c1cnc2ccc(C)cc2c1Sc1nnc(-c2ccccc2)c(-c2ccccc2)n1 [T3, Ethyl 4-((5,6-diphenyl-1,2,4-triazin-3-yl)thio)-6-methylquinoline-3-carboxylate] | 83.43 | 210 to 212 | < 90 |  | 
